The nature of data set [1]: Toxicity of Epi-1 alone injected i.p. in adult mice. Here is the method: Six-week-old adult C3H/HeN mice were randomly divided into five groups of 10 mice each. […] After 14 days, a re-challenge was carried out on surviving mice with 50× the LD50 of JEV. Mouse survival and activity were monitored on a daily basis for up to 25 days after the primary injection. For serological studies, serum was collected on days 4, 7, and 21 after treatment. A similar approach was followed to test immunized mice.
JEV was co-injected with or without Epi-1 at various dosages (50, 100, and 200 μg/ml) into adult mice and subsequently boosted (a second JEV challenge without Epi-1) on day 14. The survival rate of mice was recorded for 25 days.

The test system of the next data set is BHK-21 cells. In words: Cell proliferation assay, Epi-1 alone on BHK-21 cells. The class given is cell-based, baby hamster. Conditions: Epi up to 1 μg/ml, 48 h, n=3. The source says: Baby hamster kidney (BHK)-21 cells were purchased and maintained as per American Type Culture Collection (ATCC no. CCL10, Manassas, Va., USA) instructions. Female C3H/HeN mice, purchased from the National Laboratory Animal Breeding and Research Center (Taiwan) and BioLASCO (Taipei, Taiwan), were housed at the Laboratory Animal Facility, National Taiwan Ocean University NTOU; Keelung, Taiwan). Mice were maintained in pathogen-free sterile isolators according to institutional guidelines, and all food, water, caging, and bedding were sterilized before use. All procedures were approved by the Animal Care and Use Committee of NTOU. The 50% lethal dose (LD50) of JEV in female C3H/HeN mice was determined. The Beijing-1 JEV strain was maintained in suckling mouse brains as previously described.
BHK-21 cells in 48-well plates were assayed with CellTiter 96 Aqueous One Solution (Promega, Madison, Wis., USA) following the vendor's instructions. Epi-1 was administered together with Japanese encephalitis virus (JEV) as co-treatment; Epi-1 was administered 24 h prior to (prophylaxis) or after (curative) the JEV inoculation. After blank value subtraction, the percentage survival against control cells was calculated. […]
The effects of Epi-1 on JEV in BHK-21 cells were studied. […] At 48 h, cell viability of JEV infection was determined (FIG. 1a). […]

“Also recorded” adds a separate entry of the source. Where no end group is shown, it is not given here.

On to “GFIFHIIKGLFHAGKMIHGLV [Epi-1, epinecidin-1]”, for which the survival and behaviour entry in data set [1] (200 μg/ml Epi-1 alone i.p., n=10) was “all mice survived and behaved normally”. Also, the toxic effects entry in data set [1] (Epi-1 alone, adult mice) is listed as “No toxic effects were noted; also recorded: no detectable cytotoxicity”. For the same sequence, in the data set with BHK-21 cells, the cell viability entry is “did not affect cell viability; also recorded: no detectable cytotoxicity”.

The values are drawn from patent publication US8361483B2, “Epinecidin-1 as a vaccine adjuvant for enhancing immune responses” (priority 2011, dated 2013).
